{
  "source": "patent US20250041236A1",
  "about": "“METHOD FOR SYNTHESIZING GINSENOSIDE RG3-LOADED NANONIOSOMES” (priority 2024, published 2025)",
  "test": "In vitro release of Rg3 by the dialysis method",
  "format": "physicochemical",
  "settings": "after 24 hours, PBS pH 7.4, 37° C.",
  "procedure": "To estimate the Rg3-loaded nanoniosome's in vitro drug release profile, 1 mL of the formulation was placed inside a dialysis bag and then immersed in a PBS solution (maintained at 37° C. and a pH of 7.4) with constant stirring. The PBS solution surrounding the dialysis bag (which contained released Rg3) was extracted at different time intervals for 24 hours, and the absorbance intensity was measured at 203 nm. The quantity of Rg3 measured in the medium is divided by the starting amount of Rg3 in the formulation to determine the amount of Rg3 released.",
  "data": [
    {"smiles": "CC(C)=CCC[C@](C)(O)[C@H]1CC[C@]2(C)[C@@H]1[C@H](O)C[C@@H]1[C@@]3(C)CC[C@H](O[C@@H]4O[C@H](CO)[C@@H](O)[C@H](O)[C@H]4O[C@@H]4O[C@H](CO)[C@@H](O)[C@H](O)[C@H]4O)C(C)(C)[C@@H]3CC[C@]12C", "note": "[Ginsenoside Rg3]", "values": [
      {"measurement": "release of the loaded drug", "result": 24.78, "unit": "%"}
    ]}
  ]
}
